From PMC2248166, “Quantitative peptide binding motifs for 19 human and mouse MHC class I molecules derived using positional scanning combinatorial peptide libraries” (Immunome Research, 2008)

How the values were obtained:
HLA B*1501 = HLA B*1501 (Homo sapiens, UniProt P01889, A329T/A93T/A95T/C349S/D201E/D98Y/E187L/E204Q/E69M/E70A/K202T/N87E/Q94N/R155S/R180W/S121R/S35A/S48A/V306I/V36M/Y140S/Y91S); test: biochemical; assay type: binding
HLA B*5801 = HLA B*5801 (Homo sapiens, UniProt P01889, A329T/C349S/D201E/D98Y/E176V/E187L/E204Q/E69T/G107R/I218V/I90N/K202T/L105A/L119I/N104I/N87E/Q89R/Q94S/R106L/R155S/R180L/R86G/S101N/S121R/S35A/S48A/T118I/V127L/V306I/V36M/Y140S/Y91M); assay type: binding
HLA A*6802 = HLA A*6802 (Homo sapiens, UniProt P04439, A269V/D140Y/D185E/E176V/E277Q/E87N/F33Y/G231S/I121R/I166T/I218V/L180W/L300P/L318F/N151K/P208A/P217A/Q86R/R138H/R169H/S129P/T345S/V36M); assay type: binding
HLA B*5802 = HLA B*5802 (Homo sapiens, UniProt P01889, A329T/C349S/D201E/D98Y/E176V/E187L/E204Q/E69T/G107R/I218V/I90N/K202T/L105A/N104I/N87E/Q89R/Q94S/R106L/R155S/R180L/R86G/S101N/S121W/S35A/S48A/V127L/V306I/V36M/Y140S/Y91M); assay type: binding
HLA B*0801 = HLA B*0801 (Homo sapiens, UniProt P01889, A93T/A95T/D138N/E176V/E187T/K202T/Q94N/R180D/S35A/V36M/Y33D/Y91F); test: biochemical; assay type: binding
HLA A*3001 = HLA A*3001 (Homo sapiens, UniProt P04439, D140H/D185E/E176W/F33S/G80R/H175R/K168Q/R138E/R41S); test: biochemical; assay type: binding
H-2 D^b = H-2 D^b (Mus musculus, UniProt P01899); assay type: binding
HLA B*2705 = HLA B*2705 (Homo sapiens, UniProt P01889, D138H/D201E/E176V/E204Q/G107R/H137Y/K202T/N104T/N87E/Q56L/Q94K/R106L/R155S/R180L/S101D/S121N/S48T/Y140D/Y33H/Y91C); assay type: binding; conditions: positional scanning combinatorial 9-mer library; normalized to 1.0 for the best residue at each position
HLA B*5401 = HLA B*5401 (Homo sapiens, UniProt P01889, A329T/C349S/D138N/D201E/E176V/E187T/E204Q/E69G/I76V/K202T/L119W/R155S/R180L/S121T/S35A/S48A/V127L/V306I/V36M/Y140L); assay type: binding
H-2 D^d = H-2 D^d (Mus musculus, UniProt P01900); assay type: binding
HLA B*5101 = HLA B*5101 (Homo sapiens, UniProt P01889, A329T/A93T/A95T/C349S/D138N/D201E/D98Y/E187L/E204Q/E69T/G107R/I218V/K202T/L105A/L119W/N104I/Q94N/R106L/R155S/R180L/S101N/S121T/S35A/S48A/V306I/V36M/Y195H/Y91F); assay type: binding
HLA B*5301 = HLA B*5301 (Homo sapiens, UniProt P01889, A329T/A93T/A95T/C349S/D201E/D98Y/E176V/E187L/E204Q/E69T/G107R/I218V/K202T/L105A/L119I/N104I/Q94N/R106L/R155S/R180L/S101N/S121R/S35A/S48A/T118I/V127L/V306I/V36M/Y140S/Y91F); assay type: binding
HLA B*0702 = HLA B*0702 (Homo sapiens, UniProt P01889); assay type: binding; conditions: positional scanning combinatorial 9-mer library; normalized to 1.0 for the best residue at each position
HLA B*1503 = HLA B*1503 (Homo sapiens, UniProt P01889, A329T/A93T/A95T/C349S/D201E/D98Y/E187L/E204Q/K202T/N87E/Q94N/R155S/R180L/S121R/S35A/V306I/V36M/Y140S/Y91S); test: biochemical; assay type: binding
HLA B*3501 = HLA B*3501 (Homo sapiens, UniProt P01889, A329T/A93T/A95T/C349S/D201E/D98Y/E176V/E187L/E204Q/E69T/I218V/K202T/L119I/Q94N/R155S/R180L/S121R/S35A/S48A/T118I/V127L/V306I/V36M/Y140S/Y91F); assay type: binding
H-2 K^k = H-2 K^k (Mus musculus, UniProt P04223); assay type: binding
HLA A*3201 = HLA A*3201 (Homo sapiens, UniProt P04439, A270S/D101S/D185E/E176V/E277Q/F133L/G103R/G107R/G231S/H175R/I121M/I218V/I322F/K168Q/L105A/L300P/L318F/M331R/P208A/P217A/Q94H/R106L/R138Q/S129P/T104I/T323A/T345S/V100E/V321M/V358M); test: biochemical; assay type: binding
HLA A*0201 = HLA A*0201 (Homo sapiens, UniProt P04439, D140Y/D185E/D98H/E176V/E277Q/G131W/G231S/I119V/I121R/I166T/I218V/L300P/L318F/N151K/N90K/P208A/P217A/Q86G/Q94H/R138H/R169H/T345S); conditions: positional scanning combinatorial 9-mer library; normalized to 1.0 for the best residue at each position

Sequence of H-2 K^k (P01887 21-119): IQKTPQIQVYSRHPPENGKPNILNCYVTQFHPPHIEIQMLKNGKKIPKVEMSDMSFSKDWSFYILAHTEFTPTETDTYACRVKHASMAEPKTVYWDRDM
Sequence of H-2 K^k (P04223 22-369): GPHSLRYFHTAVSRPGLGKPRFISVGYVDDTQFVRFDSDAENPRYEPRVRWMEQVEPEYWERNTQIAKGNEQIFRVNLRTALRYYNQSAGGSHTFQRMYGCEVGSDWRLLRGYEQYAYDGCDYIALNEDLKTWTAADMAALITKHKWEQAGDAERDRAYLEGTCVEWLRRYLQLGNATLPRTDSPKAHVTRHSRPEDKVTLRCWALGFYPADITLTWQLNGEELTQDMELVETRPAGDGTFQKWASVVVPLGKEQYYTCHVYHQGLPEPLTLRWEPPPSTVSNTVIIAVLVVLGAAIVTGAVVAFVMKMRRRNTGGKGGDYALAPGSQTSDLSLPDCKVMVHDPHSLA
Sequence of H-2 D^b (P01887 21-119): as the sequence (P01887 21-119) above
Sequence of H-2 D^b (P01899 25-362): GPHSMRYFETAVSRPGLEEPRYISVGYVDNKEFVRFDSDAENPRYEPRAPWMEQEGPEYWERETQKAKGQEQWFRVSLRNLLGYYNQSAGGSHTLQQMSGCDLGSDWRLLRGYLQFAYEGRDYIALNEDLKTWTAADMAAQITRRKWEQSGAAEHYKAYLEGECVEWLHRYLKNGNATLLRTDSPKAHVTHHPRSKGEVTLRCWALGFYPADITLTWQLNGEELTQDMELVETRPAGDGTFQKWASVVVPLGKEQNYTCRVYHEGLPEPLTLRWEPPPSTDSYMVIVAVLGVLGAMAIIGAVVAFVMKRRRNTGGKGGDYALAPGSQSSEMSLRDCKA
Sequence of H-2 D^d (P01900 whole entry, looked up): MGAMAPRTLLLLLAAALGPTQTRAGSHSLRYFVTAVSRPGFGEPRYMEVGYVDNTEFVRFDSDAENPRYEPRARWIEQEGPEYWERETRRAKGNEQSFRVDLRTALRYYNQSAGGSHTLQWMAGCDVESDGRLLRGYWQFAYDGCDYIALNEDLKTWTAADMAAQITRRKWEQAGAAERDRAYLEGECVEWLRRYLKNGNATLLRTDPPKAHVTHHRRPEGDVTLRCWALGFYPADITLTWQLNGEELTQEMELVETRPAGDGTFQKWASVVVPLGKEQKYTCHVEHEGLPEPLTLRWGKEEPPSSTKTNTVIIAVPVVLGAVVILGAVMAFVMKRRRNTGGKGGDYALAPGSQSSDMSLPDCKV

Sequence	Normalized average relative binding affinity (ARB), HLA B*1501 (HLA B*1501)	Normalized average relative binding affinity (ARB), HLA B*5801 (HLA B*5801)	Normalized average relative binding affinity (ARB), HLA A*6802 (HLA A*6802)	Normalized average relative binding affinity (ARB), HLA B*5802 (HLA B*5802)	Normalized average relative binding affinity (ARB), HLA B*0801 (HLA B*0801)	Normalized average relative binding affinity (ARB), HLA A*3001 (HLA A*3001)	Normalized average relative binding affinity (ARB), H-2 Db (H-2 D^b)	Normalized average relative binding affinity (ARB), HLA B*2705 (HLA B*2705)	Normalized average relative binding affinity (ARB), HLA B*5401 (HLA B*5401)	Normalized average relative binding affinity (ARB), H-2 Dd (H-2 D^d)	Normalized average relative binding affinity (ARB), HLA B*5101 (HLA B*5101)	Normalized average relative binding affinity (ARB), HLA B*5301 (HLA B*5301)	Normalized average relative binding affinity (ARB), HLA B*0702 (HLA B*0702)	Normalized average relative binding affinity (ARB), HLA B*1503 (HLA B*1503)	Normalized average relative binding affinity (ARB), HLA B*3501 (HLA B*3501)	Normalized average relative binding affinity (ARB), H-2 Kk (H-2 K^k)	Normalized average relative binding affinity (ARB), HLA A*3201 (HLA A*3201)	Normalized average relative binding affinity (ARB), HLA A*0201 (HLA A*0201)
XIXXXXXXX [3064.0028]	0.42	0.046	0.15	0.11	0.24	0.18	0.076	0.0022	0.0071	0.018	0.047	0.11	0.033	0.026	0.032	0.0026	0.35	0.057
XKXXXXXXX [3064.0029]	0.0091	0.014	0.011	0.045	0.097	0.026	0.052	0.0076	0.0038	0.093	0.022	0.0053	0.0028	0.29	0.0078	0.0031	0.0079	0.012
XLXXXXXXX [3064.0030]	0.52	0.043	0.097	0.13	0.72	0.16	0.18	0.0053	0.0037	0.035	0.022	0.035	0.016	0.18	0.035	0.062	0.29	1.0
XMXXXXXXX [3064.0031]	0.96	0.0033	0.055	0.17	0.70	0.70	0.73	0.010	0.0072	0.018	0.039	0.040	0.0028	0.57	0.035	0.012	0.63	0.19
XNXXXXXXX [3064.0032]	0.052	0.012	0.034	0.20	0.16	0.10	0.11	0.0016	0.0018	0.018	0.022	0.0083	0.0028	0.032	0.0078	0.0053	0.025	0.0062
XPXXXXXXX [3064.0033]	0.015	0.014	0.041	0.051	1.0	0.024	0.036	0.0016	0.19	0.064	1.0	1.0	1.0	0.031	1.0	0.017	0.022	0.0034
